Test results published in patent publication US8637525B2, “Compounds for the reduction of beta-amyloid production” (Bristol-Myers Squibb Company, priority 2009, dated 2014).
Where two headings read alike, the source gives them in different places.

Test system: Aβ1-42 production
Test: Cellular assay for inhibition of Aβ1-42 production (H4 APP751 SWE clone 8.20)
Assay type: cell-based
Details: H4 APP751 SWE clone 8.20 cells, 19 h incubation
Procedure, shortened: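 Compound-treated cells were incubated 19 h at 37 °C in 5% CO2. Aβ42 in the cell plate was detected overnight at 4 °C with an Aβ42 neoepitope antibody (565, Wallac-labelled, 0.8 ng/well) plus N-terminal antibody 26D6 (APC, 75 ng/well) in 40 mM Tris-HCl pH 7.4, 0.2% BSA. IC50s came from curve fitting.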

[1] = 19 h, class symbols, read-out: Activity Rating (Aβ42 cellular IC50)
[2] = 19 h, read-out: Activity Rating (Aβ42 cellular IC50), numeric value

Row | SMILES | IC50 [1] | other results
1 | CNc1nc(Nc2ccc(CC#N)cc2)nc2c1CCC2c1ccccc1 (centres unmarked) [Example 231, 2-(4-(4-(methylamino)-7-phenyl-6,7-dihydro-5H-cyclopenta[d]pyrimidin-2-ylamino)phenyl)acetonitrile] | 100 to 1000 nM | 
2 | CNc1nc(Nc2nc3cc(C#N)ccc3[nH]2)nc2c1CCC2c1ccccc1 (centres unmarked) [Example 232, 2-(4-(methylamino)-7-phenyl-6,7-dihydro-5H-cyclopenta[d]pyrimidin-2-ylamino)-1H-benzo[d]imidazole-5-carbonitrile] | > 1000 nM | 
3 | CNc1nc(Nc2cccc(C#N)c2)nc2c1CCC2c1ccccc1 (centres unmarked) [Example 233, 3-(4-(methylamino)-7-phenyl-6,7-dihydro-5H-cyclopenta[d]pyrimidin-2-ylamino)benzonitrile] | > 1000 nM | 
4 | CNc1nc(Nc2ccc(C(C)(C)C)cc2)nc2c1CCC2c1ccccc1 (centres unmarked) [Example 234, N2-(4-tert-butylphenyl)-N4-methyl-7-phenyl-6,7-dihydro-5H-cyclopenta[d]pyrimidine-2,4-diamine] | > 1000 nM | 
5 | CNc1nc(Nc2ccc(S(C)(=O)=O)cc2)nc2c1CCC2c1ccccc1 (centres unmarked) [Example 235, N4-methyl-N2-(4-(methylsulfonyl)phenyl)-7-phenyl-6,7-dihydro-5H-cyclopenta[d]pyrimidine-2,4-diamine] | 100 to 1000 nM | 
6 | CNc1nc(Nc2ccc(OC(F)(F)F)cc2)nc2c1CCC2c1ccccc1 (centres unmarked) [Example 236, N4-methyl-7-phenyl-N2-(4-(trifluoromethoxy)phenyl)-6,7-dihydro-5H-cyclopenta[d]pyrimidine-2,4-diamine] | > 1000 nM | 
7 | CNc1nc(Nc2ccc(C#N)c(C#N)c2)nc2c1CCC2c1ccccc1 (centres unmarked) [Example 237, 4-(4-(methylamino)-7-phenyl-6,7-dihydro-5H-cyclopenta[d]pyrimidin-2-ylamino)phthalonitrile] |  | IC50 [2]: 29 nM
8 | CNc1nc(Nc2ccc(C#N)c(C(F)(F)F)c2)nc2c1CCC2c1ccccc1 (centres unmarked) [Example 238, 4-(4-(methylamino)-7-phenyl-6,7-dihydro-5H-cyclopenta[d]pyrimidin-2-ylamino)-2-(trifluoromethyl)benzonitrile] |  | IC50 (class symbols, read-out: Activity Rating (Aβ42 cellular IC50)): 100 to 1000 nM
9 | CNc1nc(Nc2ccc(C(F)(F)F)cc2)nc2c1CCC2c1ccccc1 (centres unmarked) [Example 239, N4-methyl-7-phenyl-N2-(4-(trifluoromethyl)phenyl)-6,7-dihydro-5H-cyclopenta[d]pyrimidine-2,4-diamine] | 100 to 1000 nM | 
10 | CNc1nc(Nc2ccc(Br)c(C#N)c2)nc2c1CCC2c1ccccc1 (centres unmarked) [Example 242, 2-bromo-5-(4-(methylamino)-7-phenyl-6,7-dihydro-5H-cyclopenta[d]pyrimidin-2-ylamino)benzonitrile] |  | IC50 [2]: 67 nM
11 | CNc1nc(Nc2ccc(C(=O)N(C)C)cc2)nc2c1CCC2c1ccccc1 (centres unmarked) [Example 243, N,N-dimethyl-4-(4-(methylamino)-7-phenyl-6,7-dihydro-5H-cyclopenta[d]pyrimidin-2-ylamino)benzamide] | 100 to 1000 nM | 
12 | CNc1nc(Nc2ccc(C3(C#N)CCCC3)cc2)nc2c1CCC2c1ccccc1 (centres unmarked) [Example 244, 1-(4-(4-(methylamino)-7-phenyl-6,7-dihydro-5H-cyclopenta[d]pyrimidin-2-ylamino)phenyl)cyclopentanecarbonitrile] | > 1000 nM | 
13 | CNc1nc(Nc2ccc3c(c2)CCNC3)nc2c1CCC2c1ccccc1 (centres unmarked) [Example 245, N4-methyl-7-phenyl-N2-(1,2,3,4-tetrahydroisoquinolin-6-yl)-6,7-dihydro-5H-cyclopenta[d]pyrimidine-2,4-diamine] | > 1000 nM | 
14 | CNc1nc(Nc2ccc(C#N)c(OC(F)(F)F)c2)nc2c1CCC2c1ccccc1 (centres unmarked) [Example 246, 4-(4-(methylamino)-7-phenyl-6,7-dihydro-5H-cyclopenta[d]pyrimidin-2-ylamino)-2-(trifluoromethoxy)benzonitrile] |  | IC50 [2]: 31 nM
15 | CNc1nc(Nc2ccc(C3(C#N)CC3)cc2)nc2c1CCC2c1ccccc1 (centres unmarked) [Example 247, 1-(4-(4-(methylamino)-7-phenyl-6,7-dihydro-5H-cyclopenta[d]pyrimidin-2-ylamino)phenyl)cyclopropanecarbonitrile] | 100 to 1000 nM | 
16 | CNc1nc(Nc2ccc(NC3(C#N)CC3)c(OC)c2)nc2c1CCC2c1ccccc1 (centres unmarked) [Example 248, 1-(2-methoxy-4-(4-(methylamino)-7-phenyl-6,7-dihydro-5H-cyclopenta[d]pyrimidin-2-ylamino)phenylamino)cyclopropanecarbonitrile] | > 1000 nM | 
17 | CNc1nc(Nc2ccc3[nH]c(C)cc3c2)nc2c1CCC2c1ccccc1 (centres unmarked) [Example 249, N4-methyl-N2-(2-methyl-1H-indol-5-yl)-7-phenyl-6,7-dihydro-5H-cyclopenta[d]pyrimidine-2,4-diamine] | > 1000 nM | 
18 | CNc1nc(Nc2ccc3occc3c2)nc2c1CCC2c1ccccc1 (centres unmarked) [Example 250, N2-(benzofuran-5-yl)-N4-methyl-7-phenyl-6,7-dihydro-5H-cyclopenta[d]pyrimidine-2,4-diamine] | > 1000 nM | 

Row | SMILES | IC50 [1] | other results
19 | CNc1nc(Nc2ccc3[nH]ccc3c2)nc2c1CCC2c1ccccc1 (centres unmarked) [Example 251, N2-(1H-indol-5-yl)-N4-methyl-7-phenyl-6,7-dihydro-5H-cyclopenta[d]pyrimidine-2,4-diamine] | > 1000 nM | 
20 | CNc1nc(Nc2ccc3nc(C)oc3c2)nc2c1CCC2c1ccccc1 (centres unmarked) [Example 252, N4-methyl-N2-(2-methylbenzo[d]oxazol-6-yl)-7-phenyl-6,7-dihydro-5H-cyclopenta[d]pyrimidine-2,4-diamine] | > 1000 nM | 
21 | CNc1nc(Nc2ccc3nc[nH]c3c2)nc2c1CCC2c1ccccc1 (centres unmarked) [Example 253, N2-(1H-benzo[d]imidazol-6-yl)-N4-methyl-7-phenyl-6,7-dihydro-5H-cyclopenta[d]pyrimidine-2,4-diamine] |  | IC50 [2]: 5900 nM
22 | CNc1nc(Nc2ccc3c(ccn3C)c2)nc2c1CCC2c1ccccc1 (centres unmarked) [Example 254, N4-methyl-N2-(1-methyl-1H-indol-5-yl)-7-phenyl-6,7-dihydro-5H-cyclopenta[d]pyrimidine-2,4-diamine] |  | IC50 [2]: 1000 nM
23 | CNc1nc(Nc2ccc3nc(C)sc3c2)nc2c1CCC2c1ccccc1 (centres unmarked) [Example 255, N4-methyl-N2-(2-methylbenzo[d]thiazol-6-yl)-7-phenyl-6,7-dihydro-5H-cyclopenta[d]pyrimidine-2,4-diamine] | > 1000 nM | 
24 | CNc1nc(Nc2ccc(Br)c(OC)c2)nc2c1CCC2c1ccccc1 (centres unmarked) [Example 256, N2-(4-bromo-3-methoxyphenyl)-N4-methyl-7-phenyl-6,7-dihydro-5H-cyclopenta[d]pyrimidine-2,4-diamine] |  | IC50 [2]: 97 nM
25 | CNc1nc(Nc2ccc(C(C)=O)cc2)nc2c1CCC2c1ccccc1 (centres unmarked) [Example 257, 1-(4-(4-(methylamino)-7-phenyl-6,7-dihydro-5H-cyclopenta[d]pyrimidin-2-ylamino)phenyl)ethanone] | 10 to 100 nM | 
26 | CNc1nc(Nc2ccc(C3CC3)cc2)nc2c1CCC2c1ccc(F)cc1 (centres unmarked) [Example 258, N2-(4-cyclopropylphenyl)-7-(4-fluorophenyl)-N4-methyl-6,7-dihydro-5H-cyclopenta[d]pyrimidine-2,4-diamine] | > 1000 nM | 
27 | C#Cc1ccc(Nc2nc(NC)c3c(n2)C(c2ccc(F)cc2)CC3)cc1 (centres unmarked) [Example 259, N2-(4-ethynylphenyl)-7-(4-fluorophenyl)-N4-methyl-6,7-dihydro-5H-cyclopenta[d]pyrimidine-2,4-diamine] |  | IC50 [2]: 940 nM
28 | CC#Cc1ccc(Nc2nc(NC)c3c(n2)C(c2ccc(F)cc2)CC3)cc1 (centres unmarked) [Example 260, 7-(4-fluorophenyl)-N4-methyl-N2-(4-(prop-1-ynyl)phenyl)-6,7-dihydro-5H-cyclopenta[d]pyrimidine-2,4-diamine] |  | IC50 [2]: 860 nM
29 | CNc1nc(Nc2ccc(-c3ccnc(C)c3)c(OC)c2)nc2c1CCC2c1ccccc1 (centres unmarked) [Example 261, N2-(3-methoxy-4-(2-methylpyridin-4-yl)phenyl)-N4-methyl-7-phenyl-6,7-dihydro-5H-cyclopenta[d]pyrimidine-2,4-diamine] | 1.5 to 9.9 nM | 
30 | CNc1nc(Nc2ccc(-c3ccncc3)c(OC)c2)nc2c1CCC2c1ccccc1 (centres unmarked) [Example 262, N2-(3-methoxy-4-(pyridin-4-yl)phenyl)-N4-methyl-7-phenyl-6,7-dihydro-5H-cyclopenta[d]pyrimidine-2,4-diamine] | 1.5 to 9.9 nM | 
31 | CNc1nc(Nc2ccc(-c3cccnc3)c(OC)c2)nc2c1CCC2c1ccccc1 (centres unmarked) [Example 263, N2-(3-methoxy-4-(pyridin-3-yl)phenyl)-N4-methyl-7-phenyl-6,7-dihydro-5H-cyclopenta[d]pyrimidine-2,4-diamine] |  | IC50 [2]: 32 nM
32 | CNc1nc(Nc2ccc(-n3ncnc3C)c(OC)c2)nc2c1CC[C@@H]2c1ccc(F)cc1 [Example 264B, (R)-7-(4-fluorophenyl)-N2-(3-methoxy-4-(5-methyl-1H-1,2,4-triazol-1-yl)phenyl)-N4-methyl-6,7-dihydro-5H-cyclopenta[d]pyrimidine-2,4-diamine] | 10 to 100 nM | 
33 | CNc1nc(Nc2ccc(-n3cnc(C)n3)c(OC)c2)nc2c1CC[C@@H]2c1ccccc1OC [Example 266B, (R)—N2-(3-methoxy-4-(3-methyl-1H-1,2,4-triazol-1-yl)phenyl)-7-(2-methoxyphenyl)-N4-methyl-6,7-dihydro-5H-cyclopenta[d]pyrimidine-2,4-diamine] | 10 to 100 nM | 
34 | CNc1nc(Nc2ccc(-n3cnc(C)c3)c(OC)n2)nc2c1CCC2c1ccc(F)cc1 (centres unmarked) [Example 267, 7-(4-fluorophenyl)-N2-(6-methoxy-5-(4-methyl-1H-imidazol-1-yl)pyridin-2-yl)-N4-methyl-6,7-dihydro-5H-cyclopenta[d]pyrimidine-2,4-diamine] | 10 to 100 nM | 
35 | CNc1nc(Nc2ccc(-n3cnc(C)n3)c(OC)c2)nc2c1CC[C@@H]2c1ccccc1Cl [Example 268B, (R)—N2-(3-methoxy-4-(3-methyl-1H-1,2,4-triazol-1-yl)phenyl)-7-(2-chlorophenyl)-N4-methyl-6,7-dihydro-5H-cyclopenta[d]pyrimidine-2,4-diamine] | 10 to 100 nM | 
